# Values of other authors in patent publication US20250312270A1, “READY-TO-INFUSE PHENYLEPHRINE COMPOSITIONS” (AMNEAL EU, LIMITED, priority 2023, published 2025).
# Tested on: blood pressure
# Conditions: doses above 6 mcg/kg/min, intravenous continuous infusion, adult patients with septic or other vasodilatory shock
smiles,measurement,value
"CNC[C@H](O)c1cccc(O)c1 [phenylephrine, (R)-3-Hydroxy-α-(methylaminomethyl)benzyl alcohol]",incremental increase in blood pressure,do not show significant incremental increase in blood pressure
